Assay results as given in US6689779B2, “Oxazolidinone derivatives and a process for the preparation thereof” (priority 2000, dated 2004).
≈ marks a conversion by molar mass, not a printed value.

Tested on: ATCC 35837: Ethanmbutol resistant Mycobacterium tuberculosis
Experiment: Assay for in vitro antibacterial activity, agar dilution method: ATCC 35837
Format: cell-based
Conditions: for Antibacterial Activity (MIC50) ATCC 35837: agar dilution method, Ethanmbutol resistant Mycobacterium tuberculosis; for MIC50: Mycobacterium tuberculosis, ATCC35837, read-out: Antibacterial Activity (MIC50) ATCC 35837

CC(=O)NC[C@H]1CN(c2ccc(-c3ccc(-n4cncn4)nc3)c(F)c2)C(=O)O1 [Exmp. 129, (S)-[N-3-(4-(2-(1,2,4-triazol-1-yl)pyridin-5-yl)-3-fluorophenyl)-2-oxo-5-oxazolidinyl]methyl acetamide]
Antibacterial Activity (MIC50) ATCC 35837: 0.2 µg/mL

CC(=O)NC[C@H]1CN(c2ccc(-c3ccc(-c4nnc(C)o4)nc3)c(F)c2)C(=O)O1 [Exmp. 137, (S)-[N-3-(4-(2-(5-methyl-(1,3,4)-oxadiazol-2-yl)-pyridin-5-yl)-3-fluorophenyl)-2-oxo-5-oxazolidinyl]methyl acetamide]
Antibacterial Activity (MIC50) ATCC 35837: 0.1 µg/mL

CO[C@H]1/C=C/O[C@@]2(C)Oc3c(C)c(O)c4c(O)c(c(/C=N/N5CCN(C)CC5)c(O)c4c3C2=O)NC(=O)/C(C)=C\C=C\[C@H](C)[C@H](O)[C@@H](C)[C@@H](O)[C@@H](C)[C@H](OC(C)=O)[C@@H]1C [Rifampin, reference compound]
MIC50: 0.2 µg/mL (≈ 0.243 µM)

CC(=O)NC[C@H]1CN(c2ccc(-c3ccc(-c4nnn[nH]4)nc3)c(F)c2)C(=O)O1 [Exmp. 152, (S)-[N-3-(4-(2-(5-Tetrazolyl)-5-pyridinyl)-3-fluorophenyl)-2-oxo-5-oxazolidinyl]methyl Acetamide]
Antibacterial Activity (MIC50) ATCC 35837: >25 µg/mL

N[C@@H]1CON=C1O [Cycloserine, reference compound]
MIC50: 6.25 µg/mL (≈ 61.2 µM)

CC(=O)NC[C@H]1CN(c2ccc(-c3ccc(-c4noc(C)n4)nc3)c(F)c2)C(=O)O1 [Exmp. 138, (S)-[N-3-(4-(2-(5-methyl-(1,2,4)-oxadiazol-3-yl)pyridin-5-yl)-3-fluorophenyl)-2-oxo-5-oxazolidinyl]methyl acetamide]
Antibacterial Activity (MIC50) ATCC 35837: 0.1 µg/mL

CC(=O)NC[C@H]1CN(c2ccc(-c3ccc(-c4nnnn4C)nc3)c(F)c2)C(=O)O1 [Exmp. 139, (S)-[N-3-(4-(2-(1-methyl-5-tetrazolyl)-pyridin-5-yl)-3-fluorophenyl)-2-oxo-5-oxazolidinyl]methyl acetamide]
Antibacterial Activity (MIC50) ATCC 35837: 0.1 µg/mL

CC(=O)NC[C@H]1CN(c2ccc(N3CCOCC3)c(F)c2)C(=O)O1 [Example U-100766, reference compound]
MIC50: 1.56 µg/mL (≈ 4.62 µM)

CC(=O)NC[C@H]1CN(c2ccc(-c3ccc(-c4nnn(C)n4)nc3)c(F)c2)C(=O)O1 [Exmp. 140, (S)-[N-3-(4-(2-(2-methyl-5-tetrazolyl)-pyridin-5-yl)-3-fluorophenyl)-2-oxo-5-oxazolidinyl]methyl acetamide]
Antibacterial Activity (MIC50) ATCC 35837: 0.1 µg/mL

CC(=O)NC[C@H]1CN(c2ccc(-c3ccc(-n4cnnn4)nc3)c(F)c2)C(=O)O1 [Exmp. 136, (S)-(N-3-(4-(2-(1-tetrazolyl)-pyridin-5-yl)-3-fluorophenyl)-2-oxo-5-oxazolidinyl)methyl acetamide]
Antibacterial Activity (MIC50) ATCC 35837: 0.1 µg/mL

CC(=O)NC[C@H]1CN(c2ccc(-c3ccc(N4CCOC4=O)nc3)c(F)c2)C(=O)O1 [Exmp. 143, (S)-[N-3-(4-(2-(2-oxo-(1,3)-oxazolidin-3-yl)-pyridin-5-yl)-3-fluorophenyl)-2-oxo-5-oxazolidinyl]methyl acetamide]
Antibacterial Activity (MIC50) ATCC 35837: 0.1 µg/mL
